# Laboratory results reported in the OPERA property sets (Mansouri et al. 2018).
# Settings: not given
Compound,logP,solubility
CCCOc1ccc([N+](=O)[O-])cc1NC(C)=O,1.6,–
O=C(O)c1c(C(=O)O)c(C(=O)O)c(C(=O)O)c(C(=O)O)c1C(=O)O,1.5,–
Oc1ncnc2[nH]ncc12,-0.55,–
C=CC(=O)NCCN1CCOCC1,-0.55,–
COc1ccccc1C=O,1.72,–
CNC(=O)CCc1ccccc1,1.17,–
Cc1cn(C2OC(CO)CC2F)c(=O)[nH]c1=O (stereo not given),-0.44,–
CCC(=O)OC1(c2ccccc2)CCN(C)CC1CC (stereo not given),3.61,–
CC(=O)OCCOCn1cnc2cnc(N)nc21,-0.61,–
COCCn1cnc2c(=N)n(C)c(=O)[nH]c21,-0.96,–
NCCCN1c2ccccc2Sc2ccc(Cl)cc21,4.47,–
Clc1cc2c(Cl)c(Cl)c(Cl)c(Cl)c2cc1Cl,7.7,–
COc1nc(C)nc(=NC(O)=NS(=O)(=O)c2ccccc2C(=O)O)[nH]1,1.7,–
CC(C)COC(=O)c1cc(=O)[nH]c(=O)[nH]1,1.01,–
CCCCN(CCC)N=O,2.09,–
O=C(O)C(=O)Nc1nc(-c2ccc3c(c2)OCCO3)cs1,1.8,–
COCC(C)OC(C)=O (stereo not given),0.56,–
CNc1nc(C)nc(C(Cl)(Cl)Cl)n1,2.43,–
CC(=O)NCCc1c[nH]c2ccccc12,1.41,–
Nc1c(Oc2ccccc2)c(Oc2ccccc2)c(N)c2c1C(=O)c1ccccc1C2=O,5.19,–
COC(=O)c1cc2ccccc2o1,2.53,–
COC(=O)C(C)Oc1ccc(Oc2ccc(Cl)cc2Cl)cc1 (stereo not given),4.62,–
COP(=S)(OC)Oc1ccc(C#N)cc1,2.71,–
c1ccc2[nH]c(-c3cscn3)nc2c1,2.47,–
ClC1=CC2(Cl)C3C(Cl)C(Cl)C(Cl)C3C1(Cl)C2(Cl)Cl (stereo not given),5.91,–

Compound,logP,solubility
CNS(=O)(=O)Cc1ccc2[nH]cc(CCN(C)C)c2c1,0.93,–
COC1=C(OC)C(=O)C(OC)=C(OC)C1=O,0.41,–
NC(=O)c1cccc2ccccc12,1.88,–
c1ccc(Cn2cncn2)cc1,0.92,–
Cc1cc(Cl)ccc1OCC(=O)O,3.25,–
Brc1ccccc1-c1ccccc1,4.59,–
Cc1cc(Cl)c(C(C)C)cc1Cl,5.6,–
N#Cc1cc(-c2ccncc2)cnc1Cl,1.74,–
CCCCC(OC(Cc1ccccc1)C(=O)N1CCC(OCOC)CC1)C(=O)NC(CC1CCCCC1)C(O)CC(C(=O)NCCNc1noc(N)n1)C(C)C (stereo not given),4.5,–
N#Cc1cc(I)c(O)c(I)c1,3.43,–
Brc1ccc(-c2ccccc2)cc1,4.96,–
c1ccc(Cn2ccnc2)cc1,1.6,–
ClCC1(CCl)C2C(Cl)C(Cl)(Cl)C1(C(Cl)Cl)CC2(Cl)Cl (stereo not given),6.26,–
Nc1cc2ccccc2cc1N,1.54,–
OC[C@@H]1C[C@H](F)[C@H](n2cnc3cncnc32)O1,-0.4,–
Cc1cc(C)nc(NS(=O)(=O)c2ccc(N)cc2)n1,0.19,–
OC(CNC1CCCCC1Br)Cn1ccnc1 (stereo not given),1.21,–
CC(C(=O)Nc1ccc([N+](=O)[O-])c(C(F)(F)F)c1)C(F)(F)F (stereo not given),3.71,–
Nc1cnn(-c2ccccc2)c(=O)c1Cl,1.14,–
O=[N+]([O-])c1cccc2c1-c1cccc3c([N+](=O)[O-])ccc-2c13,4.44,–
CC(=O)OCN1C(=O)C2CC=CCC2C1=O (stereo not given),0.97,–
CC(=O)OCN1C(=O)c2cccc3cccc(c23)C1=O,2.34,–
CCCCOC(=O)c1ccccc1C(=O)OCc1ccccc1,4.73,–
COc1ccc(C(=O)CS(=O)(=O)c2ccccc2)cc1,2.18,–
CCCC(=O)OCN1C(=O)NC(c2ccccc2)(c2ccccc2)C1=O,3.34,–

Compound,logP,solubility
O=C([O-])c1ccccc1.[Na+],–,3860 mM
CCN(C)N=O,0.04,–
CC(C)C(=O)Nc1ccc([N+](=O)[O-])c(C(F)(F)F)c1,3.35,–
COc1ccc(C=O)cc1OC,1.22,–
Cn1cnc([N+](=O)[O-])c1I,1,–
Clc1ccc2c(Cl)ccnc2c1,3.57,–
CCCCCCCCCCCCN1CC(C(=O)O)CC1=O (stereo not given),2.6,–
Clc1ccc2cc(Cl)c(Cl)cc2c1,5.12,7.21e-05 mM
O=[N+]([O-])c1nc[nH]c1I,0.28,–
C[C@H](CCC(=O)O)[C@H]1CC[C@H]2[C@@H]3CC[C@@H]4C[C@H](O)CC[C@]4(C)[C@H]3C[C@H](O)[C@]12C,3.5,–
Nc1ccc(S(=O)(=O)O)c(N)c1,-4.65,–
CCOC(=O)C1CNC(=O)CC1C(=O)OCC (stereo not given),-0.03,–
CC(C)CN=C=S,2.82,–
CC=CCCCCC,4.51,–
Cc1ccc(S(=O)(=O)NC(CCC(=O)NC2CCCCC2)C(=O)O)cc1 (stereo not given),0.1,–
N=c1cc2n(-c3ccc(Cl)cc3)c3ccccc3nc-2cc1Nc1ccc(Cl)cc1,6.47,–
CCCCCCOc1ccc(N)cc1,3.64,–
CC(=O)OCN1C(=O)C=C(C)C1=O,0.45,–
O=C1CC2C(=O)NCC2CN1 (stereo not given),-2.11,–
COc1cc(Cl)c(Cl)c(Cl)c1Cl,4.51,–
CCCC(=O)Oc1c(Br)cc(C#N)cc1Br,3.94,–
CCCN1CCCC1CNC(=O)c1cc(S(N)(=O)=O)ccc1OC (stereo not given),2.16,–
CCCCNC(=S)NCCCC,2.75,–
CCOP(=O)(OCC)SCc1ccccc1,3.21,3.84 mM

# Same assay, conditions: 20 °C
row,Compound,solubility
1,CCC(=O)c1ccccc1,14.9 mM
2,C=CCN(CC=C)c1c(C)cc(OC(=O)NC)cc1C,0.255 mM
3,CCN(C)N=O,3400 mM

# Same assay, conditions: 22 °C
row,Compound,solubility
1,Clc1c(Cl)c(Cl)c2ccccc2c1Cl,1.6e-05 mM

# Same assay, conditions: 22.0 °C
row,Compound,log10 OH rate constant (cm³/molecule/s)
1,COC(F)(F)C(F)(F)C(F)(F)C(F)(F)F,-14.1

# Same assay, conditions: 23.0 °C
row,Compound,log10 OH rate constant (cm³/molecule/s)
1,CC(=O)C(C)(C)O,-12
2,CCCCCC=O,-10.5

# Same assay, conditions: 24 °C
row,Compound,solubility
1,c1ccc2cc3ccccc3cc2c1,0.000244 mM

# Same assay, conditions: 24.0 °C
row,Compound,log10 OH rate constant (cm³/molecule/s)
1,Clc1cccc2c1Oc1ccccc1O2,-11.3

# Same assay, conditions: 25 °C
row,Compound,solubility
1,C=C(C)C(=O)OCC,47.3 mM
2,O=CC=Cc1ccccc1,10.7 mM
3,CCCCCCCCCCCCCC,1.97e-05 mM
4,O=C(O)C1CCCCC1,35.9 mM
5,COCC(C)OC(C)=O (stereo not given),1500 mM
6,CCCCC(CC)COP(=O)(Oc1ccccc1)Oc1ccccc1 (stereo not given),0.00524 mM
7,c1ccc2cnncc2c1,384 mM
8,ClC(Cl)=C(Cl)C(Cl)(Cl)Cl,0.0684 mM
9,Cc1cc(C)c(C)c(O)c1,5.59 mM
10,Nc1ccc2cc3ccccc3cc2c1,0.00673 mM
11,Cc1ccc2cc3c(ccc4ccccc43)c3c2c1CC3,1.08e-05 mM
12,CCCCOC(=O)c1ccccc1C(=O)OCc1ccccc1,0.00861 mM
13,CCCc1ccc(O)cc1,9.38 mM
14,Brc1cc(Br)c(Br)cc1Br,0.000102 mM
15,FCCl,151 mM
16,COc1c(O)c(Cl)c(Cl)c(Cl)c1Cl,0.016 mM
17,COC(=O)COc1ccc(Cl)cc1Cl,1.1 mM

# Same assay, conditions: 25.0 °C
row,Compound,log10 OH rate constant (cm³/molecule/s)
1,FC(F)OC(F)F,-14.5
2,COC(=O)OC,-12.5
3,CC/C=C\CCOC(C)=O,-10.1
4,O=CC(F)Cl (stereo not given),-11.7
5,CC(Br)Br,-12.6
6,CC(F)(Cl)Cl,-14.2
7,c1ccc2cc3ccccc3cc2c1,-9.96
8,CC(C)CC(=O)CC(C)C,-10.6
9,Cc1ccc(C(C)(C)C)cc1,-10.9
10,COC(F)(F)C(F)(F)C(F)(F)F,-13.9
11,COC(F)(F)C(F)(F)F,-13.9
12,CC(C)(C)N,-10.9
13,C=COC(C)=O,-10.6
